Assay results: ChEMBL document CHEMBL5143541, “Novel structural-related analogs of PFI-3 (SRAPs) that target the BRG1 catalytic subunit of the SWI/SNF complex increase the activity of temozolomide in glioblastoma cells” (Bioorg Med Chem, 2022)
Activity calls are given as the source filed them. The rule behind the calls is not given here.

How the values were obtained:
[1] = test system: MT330; assay: Induction of cell death in human MT330 cells assessed as reduction in cell viability at 50 uM after 3 days by ELISA; format: functional, cell-based; details: time 3.0 day
[2] = test system: LN-229; assay: Antiproliferative activity against human LN-229 cells assessed as reduction in cell viability at 80 uM up to 7 days by incucyte live cell assay; format: functional, cell-based; details: time <= 7.0 day
[3] = test system: MT330; assay: Induction of cell death in human MT330 cells assessed as reduction in cell viability at 2 uM after 3 days by ELISA; format: functional, cell-based; details: time 3.0 day
[4] = test system: MT330; assay: Induction of cell death in human MT330 cells assessed as reduction in cell viability at 2 uM combination with TMZ after 3 days by ELISA; format: functional, cell-based; details: time 3.0 day
[5] = test system: LN-229; assay: Antiproliferative activity against human LN-229 cells assessed as reduction in cell viability at 2 uM up to 7 days by incucyte live cell assay; format: functional, cell-based; details: time <= 7.0 day
[6] = test system: LN-229; assay: Antiproliferative activity against human LN-229 cells assessed as reduction in cell viability at 2 uM combination with TMZ up to 7 days by incucyte live cell assay; format: functional, cell-based; details: time <= 7.0 day
[7] = test system: MT330; assay: Anti-tumor activity against human MT330 cells xenografted in NSG mouse assessed as reduction in tumor growth at 10 mg/kg, ip for alterate days combination with TMZ and measured after 2 weeks; format: functional, organism-based
[8] = test system: MT330; assay: Anti-tumor activity against human MT330 cells xenografted in NSG mouse assessed as reduction in tumor growth at 10 mg/kg, ip for alterate days combination with TMZ and measured after 8 weeks; format: functional, organism-based
[9] = target: SWI/SNF-related matrix-associated actin-dependent regulator of chromatin subfamily A member 4 (Homo sapiens) (UniProt P51532); assay: Binding affinity to epitope-tagged BRG1 bromodomain (unknown origin) expressed in MT330 cells assessed as thermostability at < 54.2 degC at 30 uM for 2 hrs by […]; format: cell-based
SWI/SNF-related matrix-associated actin-dependent regulator of chromatin subfamily A member 4 (Homo sapiens), sequence (P51532 whole entry): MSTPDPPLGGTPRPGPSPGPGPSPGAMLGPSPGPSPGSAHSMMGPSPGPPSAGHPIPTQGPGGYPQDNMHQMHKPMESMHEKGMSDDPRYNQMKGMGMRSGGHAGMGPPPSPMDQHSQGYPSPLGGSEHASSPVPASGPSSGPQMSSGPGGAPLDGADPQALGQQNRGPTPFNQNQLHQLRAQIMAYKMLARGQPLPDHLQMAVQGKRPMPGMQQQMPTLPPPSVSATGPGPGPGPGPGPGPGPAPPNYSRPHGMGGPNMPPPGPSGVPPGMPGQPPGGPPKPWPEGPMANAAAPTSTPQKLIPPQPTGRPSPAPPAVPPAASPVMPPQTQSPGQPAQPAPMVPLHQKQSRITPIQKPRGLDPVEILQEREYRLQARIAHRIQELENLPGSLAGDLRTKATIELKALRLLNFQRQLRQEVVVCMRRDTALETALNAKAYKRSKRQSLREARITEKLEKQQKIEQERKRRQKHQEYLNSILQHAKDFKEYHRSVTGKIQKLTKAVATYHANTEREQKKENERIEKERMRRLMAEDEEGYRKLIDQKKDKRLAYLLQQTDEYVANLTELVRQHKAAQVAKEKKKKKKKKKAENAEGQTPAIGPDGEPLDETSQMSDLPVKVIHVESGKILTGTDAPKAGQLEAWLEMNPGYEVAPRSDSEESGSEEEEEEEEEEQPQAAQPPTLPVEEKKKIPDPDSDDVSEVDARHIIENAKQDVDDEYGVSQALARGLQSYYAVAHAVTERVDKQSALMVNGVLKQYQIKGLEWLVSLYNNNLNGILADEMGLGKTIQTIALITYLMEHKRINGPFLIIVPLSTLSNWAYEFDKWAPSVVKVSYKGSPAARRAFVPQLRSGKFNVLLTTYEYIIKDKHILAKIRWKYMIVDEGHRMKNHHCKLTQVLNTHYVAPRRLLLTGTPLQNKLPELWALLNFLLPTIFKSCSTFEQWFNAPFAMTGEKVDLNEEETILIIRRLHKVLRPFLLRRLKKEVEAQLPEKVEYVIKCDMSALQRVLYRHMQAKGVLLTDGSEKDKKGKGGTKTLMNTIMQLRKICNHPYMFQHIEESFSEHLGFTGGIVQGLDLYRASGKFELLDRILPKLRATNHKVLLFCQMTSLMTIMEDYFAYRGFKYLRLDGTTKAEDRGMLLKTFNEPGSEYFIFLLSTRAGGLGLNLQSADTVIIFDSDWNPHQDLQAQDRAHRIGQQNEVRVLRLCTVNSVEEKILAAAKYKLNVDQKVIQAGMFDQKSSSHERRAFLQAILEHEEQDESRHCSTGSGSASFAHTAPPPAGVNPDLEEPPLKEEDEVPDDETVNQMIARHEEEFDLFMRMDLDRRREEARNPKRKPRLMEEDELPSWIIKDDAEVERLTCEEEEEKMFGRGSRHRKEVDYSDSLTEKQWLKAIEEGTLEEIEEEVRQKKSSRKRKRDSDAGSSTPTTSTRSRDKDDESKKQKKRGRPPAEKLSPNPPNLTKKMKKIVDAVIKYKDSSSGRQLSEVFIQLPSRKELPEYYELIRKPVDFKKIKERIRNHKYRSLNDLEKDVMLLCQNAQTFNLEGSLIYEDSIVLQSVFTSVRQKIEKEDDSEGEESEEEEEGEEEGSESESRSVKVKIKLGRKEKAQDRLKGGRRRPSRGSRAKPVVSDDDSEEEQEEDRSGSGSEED

SMILES	Activity [3]	Activity [4]	further results
Cn1nnc2c(C(N)=O)ncn2c1=O			Activity [1]: Active; Activity [2]: Active
O=C(/C=C/N1C[C@H]2C[C@@H]1CN2c1ccccn1)c1cc(Br)ccc1O	Active	Active	
COc1ccc(N2C[C@H]3C[C@@H]2CN3/C=C/C(=O)c2ccccc2Cl)cc1	Active	Active	
COc1ccc(N2C[C@H]3C[C@@H]2CN3/C=C/C(=O)c2cc(F)ccc2O)cc1	Active	Active	
O=C(/C=C/N1C[C@H]2C[C@@H]1CN2c1ccc(F)cc1)c1ccccc1	Active	Active	Activity [5]: Active; Activity [6]: Active; TGI [7]: Active; TGI [8]: Active
O=C(/C=C/N1C[C@H]2C[C@@H]1CN2c1ccccn1)c1cc(F)ccc1O	Active	Active	
O=C(/C=C/N1C[C@H]2C[C@@H]1CN2c1ccccn1)c1ccccc1O	Active	Active	Activity [5]: Active; Activity [6]: Active; Activity [9]: Active; TGI [7]: Active; TGI [8]: Active
COc1ccc(N2C[C@H]3C[C@@H]2CN3/C=C/C(=O)c2ccccc2O)cc1	Active	Active	
O=C(/C=C/N1C[C@H]2C[C@@H]1CN2c1ccc(F)cc1)c1ccccc1O	Active	Active	
O=C(/C=C/N1C[C@H]2C[C@@H]1CN2c1ccccn1)c1ccccc1Cl	Active	Active	
O=C(/C=C/N1C[C@H]2C[C@@H]1CN2c1ccccn1)c1cc(Br)cc(Br)c1O	Active	Active	Activity [5]: Active; Activity [6]: Active; TGI [7]: Active; TGI [8]: Active
O=C(/C=C/N1C[C@H]2C[C@@H]1CN2c1ccc(F)cc1)c1ccccc1Cl	Active	Active	
O=C(/C=C/N1C[C@H]2C[C@@H]1CN2c1ccccn1)c1ccc(Cl)cc1O	Active	Active	
O=C(/C=C/N1C[C@H]2C[C@@H]1CN2c1ccc(F)cc1)c1cc(F)ccc1O	Active	Active	
